Results from ChEMBL document CHEMBL4507319 (2021).

Legend:
[1] = biological target: Ephrin type-A receptor 2 (Homo sapiens) (UniProt P29317); test: EphA2(h) Eurofins kinase panel; conditions: Compound concentration 1.0 uM
[2] = biological target: T1, Serine/threonine-protein kinase TAO2 (Homo sapiens) (UniProt Q9UL54); test: TAO2(h) Eurofins kinase panel; conditions: Compound concentration 1.0 uM
T1 sequence (whole entry): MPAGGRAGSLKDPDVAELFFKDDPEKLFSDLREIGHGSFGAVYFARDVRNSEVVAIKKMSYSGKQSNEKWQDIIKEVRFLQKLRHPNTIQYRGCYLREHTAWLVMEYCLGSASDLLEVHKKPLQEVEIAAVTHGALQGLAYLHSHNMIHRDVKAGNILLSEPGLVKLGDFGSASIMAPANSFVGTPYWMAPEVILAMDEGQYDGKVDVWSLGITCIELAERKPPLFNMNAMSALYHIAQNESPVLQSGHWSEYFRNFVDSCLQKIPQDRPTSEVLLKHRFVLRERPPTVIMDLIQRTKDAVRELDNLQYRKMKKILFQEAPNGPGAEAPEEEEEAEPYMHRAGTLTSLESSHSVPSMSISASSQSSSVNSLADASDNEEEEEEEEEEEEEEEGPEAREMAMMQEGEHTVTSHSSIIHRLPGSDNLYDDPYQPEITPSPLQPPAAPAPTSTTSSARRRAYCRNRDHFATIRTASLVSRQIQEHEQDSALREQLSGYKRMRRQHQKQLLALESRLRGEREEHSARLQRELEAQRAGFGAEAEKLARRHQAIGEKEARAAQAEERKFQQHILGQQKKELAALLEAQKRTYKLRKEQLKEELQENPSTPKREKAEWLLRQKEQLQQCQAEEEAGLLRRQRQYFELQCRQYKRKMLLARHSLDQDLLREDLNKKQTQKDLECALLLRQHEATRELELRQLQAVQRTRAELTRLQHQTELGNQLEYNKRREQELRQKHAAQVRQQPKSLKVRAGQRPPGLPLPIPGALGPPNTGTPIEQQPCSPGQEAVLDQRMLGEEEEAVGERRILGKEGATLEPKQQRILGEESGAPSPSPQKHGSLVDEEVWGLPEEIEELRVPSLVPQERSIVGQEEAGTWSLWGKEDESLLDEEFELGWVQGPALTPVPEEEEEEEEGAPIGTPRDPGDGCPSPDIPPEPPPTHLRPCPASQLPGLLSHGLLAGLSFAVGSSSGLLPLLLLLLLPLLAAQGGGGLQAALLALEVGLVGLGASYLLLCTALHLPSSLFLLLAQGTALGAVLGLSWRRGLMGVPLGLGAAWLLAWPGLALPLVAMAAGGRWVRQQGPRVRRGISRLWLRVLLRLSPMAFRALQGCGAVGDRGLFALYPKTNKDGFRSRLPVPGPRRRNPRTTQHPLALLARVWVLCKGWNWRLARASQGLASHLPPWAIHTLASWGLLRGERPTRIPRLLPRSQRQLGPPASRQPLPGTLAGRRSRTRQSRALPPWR

[3] = biological target: Serine-protein kinase ATM (Homo sapiens) (UniProt Q13315); test: ATM(h) Eurofins kinase panel; conditions: Compound concentration 1.0 uM
[4] = biological target: Casein kinase II subunit alpha (Homo sapiens) (UniProt P68400); test: CK2alpha1(h) Eurofins kinase panel; conditions: Compound concentration 1.0 uM
Chain of Casein kinase II subunit alpha (Homo sapiens) (P68400 whole entry, looked up): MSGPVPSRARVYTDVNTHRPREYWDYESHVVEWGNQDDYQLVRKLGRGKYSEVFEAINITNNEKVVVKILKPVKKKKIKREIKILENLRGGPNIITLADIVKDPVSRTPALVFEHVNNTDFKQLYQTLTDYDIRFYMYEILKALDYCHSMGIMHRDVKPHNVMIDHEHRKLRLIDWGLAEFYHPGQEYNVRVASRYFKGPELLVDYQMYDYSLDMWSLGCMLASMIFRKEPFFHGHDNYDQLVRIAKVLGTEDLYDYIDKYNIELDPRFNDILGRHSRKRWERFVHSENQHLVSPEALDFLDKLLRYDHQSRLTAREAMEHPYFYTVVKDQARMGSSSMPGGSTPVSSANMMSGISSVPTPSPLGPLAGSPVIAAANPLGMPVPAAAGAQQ

DU-145 = test: DU-145 cell line Proliferation assay; type: functional, Homo sapiens; conditions: time 6 day
[5] = biological target: Rho-associated protein kinase 1 (Homo sapiens) (UniProt Q13464); test: ROCK-I(h) Eurofins kinase panel; conditions: Compound concentration 1.0 uM
[6] = biological target: eIF-2-alpha kinase GCN2 (Homo sapiens) (UniProt Q9P2K8); test: GCN2(h) Eurofins kinase panel; conditions: Compound concentration 1.0 uM
Chain of eIF-2-alpha kinase GCN2 (Homo sapiens) (Q9P2K8 whole entry): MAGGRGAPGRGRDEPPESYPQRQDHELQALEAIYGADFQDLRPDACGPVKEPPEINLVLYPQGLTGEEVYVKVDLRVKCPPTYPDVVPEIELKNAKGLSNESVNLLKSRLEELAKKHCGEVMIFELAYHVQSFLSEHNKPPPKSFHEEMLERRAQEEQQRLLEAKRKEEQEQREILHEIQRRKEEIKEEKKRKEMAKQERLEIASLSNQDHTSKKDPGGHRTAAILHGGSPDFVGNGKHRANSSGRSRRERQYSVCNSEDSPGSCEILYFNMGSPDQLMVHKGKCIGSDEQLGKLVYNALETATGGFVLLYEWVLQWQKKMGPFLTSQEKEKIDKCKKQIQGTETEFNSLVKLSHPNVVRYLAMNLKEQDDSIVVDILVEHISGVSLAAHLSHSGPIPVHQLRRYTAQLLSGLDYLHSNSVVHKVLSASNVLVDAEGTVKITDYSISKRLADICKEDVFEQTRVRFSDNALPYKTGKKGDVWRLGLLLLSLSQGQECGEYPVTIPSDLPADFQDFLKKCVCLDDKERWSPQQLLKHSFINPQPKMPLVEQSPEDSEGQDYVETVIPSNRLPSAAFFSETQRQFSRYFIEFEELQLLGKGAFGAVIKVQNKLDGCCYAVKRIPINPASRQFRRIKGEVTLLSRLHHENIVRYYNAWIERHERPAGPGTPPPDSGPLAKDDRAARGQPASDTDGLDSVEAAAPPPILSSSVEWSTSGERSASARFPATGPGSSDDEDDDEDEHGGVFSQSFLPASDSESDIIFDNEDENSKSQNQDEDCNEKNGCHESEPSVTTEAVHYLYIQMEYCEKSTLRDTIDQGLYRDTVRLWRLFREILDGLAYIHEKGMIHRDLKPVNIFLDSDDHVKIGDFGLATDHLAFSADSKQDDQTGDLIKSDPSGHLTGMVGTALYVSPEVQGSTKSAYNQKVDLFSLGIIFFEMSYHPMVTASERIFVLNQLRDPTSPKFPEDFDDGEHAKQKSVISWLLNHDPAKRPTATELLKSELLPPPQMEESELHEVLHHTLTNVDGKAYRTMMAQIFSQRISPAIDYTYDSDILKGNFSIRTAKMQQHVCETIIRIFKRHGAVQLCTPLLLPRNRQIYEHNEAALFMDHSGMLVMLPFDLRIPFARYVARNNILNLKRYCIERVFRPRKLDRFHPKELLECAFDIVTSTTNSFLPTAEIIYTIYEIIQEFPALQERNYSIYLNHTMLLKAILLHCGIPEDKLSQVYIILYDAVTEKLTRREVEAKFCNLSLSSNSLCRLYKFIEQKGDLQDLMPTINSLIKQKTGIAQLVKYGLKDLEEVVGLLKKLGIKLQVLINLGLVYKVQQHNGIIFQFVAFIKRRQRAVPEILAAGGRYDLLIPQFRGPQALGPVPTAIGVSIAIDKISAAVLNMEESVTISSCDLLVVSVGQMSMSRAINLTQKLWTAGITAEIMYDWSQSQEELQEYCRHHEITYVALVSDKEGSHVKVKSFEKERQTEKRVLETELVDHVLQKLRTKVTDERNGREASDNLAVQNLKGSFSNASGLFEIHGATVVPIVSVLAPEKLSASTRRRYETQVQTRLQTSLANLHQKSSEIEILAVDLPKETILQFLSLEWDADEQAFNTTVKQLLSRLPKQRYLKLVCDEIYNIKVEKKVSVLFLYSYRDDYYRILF

[7] = biological target: Dual specificity mitogen-activated protein kinase kinase 2 (Homo sapiens) (UniProt P36507); test: MEK2(h) Eurofins kinase panel; conditions: Compound concentration 1.0 uM
LNCaP = test: LNCaP cell line Proliferation assay; type: functional, Homo sapiens; conditions: time 6 day
[8] = biological target: Serine/threonine-protein kinase Nek7 (Homo sapiens) (UniProt Q8TDX7); test: NEK7(h) Eurofins kinase panel; conditions: Compound concentration 1.0 uM
Chain of Serine/threonine-protein kinase Nek7 (Homo sapiens) (Q8TDX7 whole entry, looked up): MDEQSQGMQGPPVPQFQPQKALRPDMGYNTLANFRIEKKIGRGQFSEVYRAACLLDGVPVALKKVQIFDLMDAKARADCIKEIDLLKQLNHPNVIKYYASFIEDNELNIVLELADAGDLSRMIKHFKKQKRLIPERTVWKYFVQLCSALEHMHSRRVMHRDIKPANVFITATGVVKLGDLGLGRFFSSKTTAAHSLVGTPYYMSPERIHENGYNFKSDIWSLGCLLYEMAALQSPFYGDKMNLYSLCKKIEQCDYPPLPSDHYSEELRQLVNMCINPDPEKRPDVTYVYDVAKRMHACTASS

SW480 = test: SW480 cell line Proliferation assay; type: functional, Homo sapiens; conditions: time 3 day
[9] = biological target: T2, Serine/threonine-protein kinase STK11 (Homo sapiens) (UniProt Q15831); test: LKB1(h) Eurofins kinase panel; conditions: Compound concentration 1.0 uM
T2 sequence (whole entry): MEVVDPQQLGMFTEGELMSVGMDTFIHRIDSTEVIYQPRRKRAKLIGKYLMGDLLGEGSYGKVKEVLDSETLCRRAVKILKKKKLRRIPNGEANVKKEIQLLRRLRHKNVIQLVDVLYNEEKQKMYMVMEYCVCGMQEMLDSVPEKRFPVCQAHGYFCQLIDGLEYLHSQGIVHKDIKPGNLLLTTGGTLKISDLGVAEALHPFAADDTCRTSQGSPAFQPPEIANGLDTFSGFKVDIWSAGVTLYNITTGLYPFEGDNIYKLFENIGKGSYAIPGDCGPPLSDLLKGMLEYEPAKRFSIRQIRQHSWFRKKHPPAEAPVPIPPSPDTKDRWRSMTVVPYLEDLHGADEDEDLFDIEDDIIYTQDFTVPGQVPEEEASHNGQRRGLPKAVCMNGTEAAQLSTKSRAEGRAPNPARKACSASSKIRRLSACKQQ

L-363 = test: L-363 cell line Proliferation assay; type: functional, Homo sapiens; conditions: time 3 day
[10] = biological target: Serine/threonine-protein kinase SIK3 (Homo sapiens) (UniProt Q9Y2K2); test: SIK3(h) Eurofins kinase panel; conditions: Compound concentration 1.0 uM
Chain of Serine/threonine-protein kinase SIK3 (Homo sapiens) (Q9Y2K2 whole entry, looked up): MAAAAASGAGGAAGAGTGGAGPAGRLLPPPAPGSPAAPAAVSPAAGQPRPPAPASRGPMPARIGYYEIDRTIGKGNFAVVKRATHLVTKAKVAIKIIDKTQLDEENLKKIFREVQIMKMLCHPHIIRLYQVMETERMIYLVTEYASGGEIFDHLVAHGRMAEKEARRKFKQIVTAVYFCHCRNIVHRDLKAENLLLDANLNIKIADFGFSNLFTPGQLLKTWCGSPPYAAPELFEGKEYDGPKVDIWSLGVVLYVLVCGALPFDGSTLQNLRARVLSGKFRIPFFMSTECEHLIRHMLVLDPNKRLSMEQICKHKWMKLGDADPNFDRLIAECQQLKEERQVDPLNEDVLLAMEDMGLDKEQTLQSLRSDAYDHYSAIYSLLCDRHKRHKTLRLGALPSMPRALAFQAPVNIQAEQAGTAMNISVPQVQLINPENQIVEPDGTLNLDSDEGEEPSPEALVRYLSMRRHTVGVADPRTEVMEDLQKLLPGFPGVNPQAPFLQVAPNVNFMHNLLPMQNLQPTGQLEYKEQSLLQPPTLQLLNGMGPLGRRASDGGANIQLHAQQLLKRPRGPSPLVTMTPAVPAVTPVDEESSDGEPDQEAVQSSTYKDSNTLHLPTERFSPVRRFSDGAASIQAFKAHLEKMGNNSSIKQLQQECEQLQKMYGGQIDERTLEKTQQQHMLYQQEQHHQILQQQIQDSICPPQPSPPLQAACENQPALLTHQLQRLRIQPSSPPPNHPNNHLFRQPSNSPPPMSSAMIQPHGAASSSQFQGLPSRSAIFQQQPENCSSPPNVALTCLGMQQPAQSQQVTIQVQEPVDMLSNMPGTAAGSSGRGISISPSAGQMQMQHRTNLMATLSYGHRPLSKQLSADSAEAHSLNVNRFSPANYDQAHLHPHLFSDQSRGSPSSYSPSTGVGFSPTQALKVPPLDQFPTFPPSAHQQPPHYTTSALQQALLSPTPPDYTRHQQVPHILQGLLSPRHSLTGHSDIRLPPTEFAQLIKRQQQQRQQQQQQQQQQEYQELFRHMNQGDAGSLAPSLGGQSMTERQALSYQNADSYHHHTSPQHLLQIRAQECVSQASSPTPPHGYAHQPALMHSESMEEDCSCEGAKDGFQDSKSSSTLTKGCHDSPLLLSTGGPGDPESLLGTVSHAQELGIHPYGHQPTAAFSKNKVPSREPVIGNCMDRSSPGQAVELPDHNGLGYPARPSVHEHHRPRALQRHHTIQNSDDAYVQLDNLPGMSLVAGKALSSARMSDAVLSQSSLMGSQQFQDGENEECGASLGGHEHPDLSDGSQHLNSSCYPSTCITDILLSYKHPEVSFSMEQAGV

[11] = biological target: [Pyruvate dehydrogenase (acetyl-transferring)] kinase isozyme 4, mitochondrial (Homo sapiens) (UniProt Q16654); test: PDHK4(h) Eurofins kinase panel; conditions: Compound concentration 1.0 uM
Chain of [Pyruvate dehydrogenase (acetyl-transferring)] kinase isozyme 4, mitochondrial (Homo sapiens) (Q16654 whole entry, looked up): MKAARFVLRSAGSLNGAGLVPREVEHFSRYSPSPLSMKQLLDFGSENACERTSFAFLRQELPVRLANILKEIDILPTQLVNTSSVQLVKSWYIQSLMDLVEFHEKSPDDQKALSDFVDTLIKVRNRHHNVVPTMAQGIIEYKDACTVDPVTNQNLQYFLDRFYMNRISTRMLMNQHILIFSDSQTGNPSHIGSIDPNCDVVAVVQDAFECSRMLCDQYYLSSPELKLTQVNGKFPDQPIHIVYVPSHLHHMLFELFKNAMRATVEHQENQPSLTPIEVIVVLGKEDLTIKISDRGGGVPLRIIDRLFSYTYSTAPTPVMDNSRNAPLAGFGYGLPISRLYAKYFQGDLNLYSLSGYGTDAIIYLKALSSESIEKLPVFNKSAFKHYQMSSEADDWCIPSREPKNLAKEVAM

[12] = biological target: T3, Inhibitor of nuclear factor kappa-B kinase subunit epsilon (Homo sapiens) (UniProt Q14164); test: IKKepsilon(h) Eurofins kinase panel; conditions: Compound concentration 1.0 uM
T3 sequence (whole entry): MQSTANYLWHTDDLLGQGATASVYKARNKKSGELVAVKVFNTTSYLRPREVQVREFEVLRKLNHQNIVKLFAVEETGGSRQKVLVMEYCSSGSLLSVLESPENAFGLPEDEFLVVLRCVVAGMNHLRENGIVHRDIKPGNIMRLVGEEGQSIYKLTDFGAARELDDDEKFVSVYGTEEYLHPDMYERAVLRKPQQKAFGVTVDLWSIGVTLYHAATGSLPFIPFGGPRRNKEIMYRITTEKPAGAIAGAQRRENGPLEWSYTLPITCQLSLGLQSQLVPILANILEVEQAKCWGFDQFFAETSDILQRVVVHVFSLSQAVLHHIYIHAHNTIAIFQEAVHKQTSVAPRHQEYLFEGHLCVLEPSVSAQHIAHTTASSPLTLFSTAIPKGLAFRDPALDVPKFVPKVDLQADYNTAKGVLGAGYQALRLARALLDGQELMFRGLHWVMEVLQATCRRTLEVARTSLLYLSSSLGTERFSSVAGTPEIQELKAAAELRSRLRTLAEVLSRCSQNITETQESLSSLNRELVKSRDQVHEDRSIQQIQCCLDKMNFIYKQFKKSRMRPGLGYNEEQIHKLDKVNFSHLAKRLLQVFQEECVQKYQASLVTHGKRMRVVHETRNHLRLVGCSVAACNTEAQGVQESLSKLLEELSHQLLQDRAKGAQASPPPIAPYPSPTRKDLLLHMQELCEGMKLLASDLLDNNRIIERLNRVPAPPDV

Chain of Ephrin type-A receptor 2 (Homo sapiens) (P29317 whole entry): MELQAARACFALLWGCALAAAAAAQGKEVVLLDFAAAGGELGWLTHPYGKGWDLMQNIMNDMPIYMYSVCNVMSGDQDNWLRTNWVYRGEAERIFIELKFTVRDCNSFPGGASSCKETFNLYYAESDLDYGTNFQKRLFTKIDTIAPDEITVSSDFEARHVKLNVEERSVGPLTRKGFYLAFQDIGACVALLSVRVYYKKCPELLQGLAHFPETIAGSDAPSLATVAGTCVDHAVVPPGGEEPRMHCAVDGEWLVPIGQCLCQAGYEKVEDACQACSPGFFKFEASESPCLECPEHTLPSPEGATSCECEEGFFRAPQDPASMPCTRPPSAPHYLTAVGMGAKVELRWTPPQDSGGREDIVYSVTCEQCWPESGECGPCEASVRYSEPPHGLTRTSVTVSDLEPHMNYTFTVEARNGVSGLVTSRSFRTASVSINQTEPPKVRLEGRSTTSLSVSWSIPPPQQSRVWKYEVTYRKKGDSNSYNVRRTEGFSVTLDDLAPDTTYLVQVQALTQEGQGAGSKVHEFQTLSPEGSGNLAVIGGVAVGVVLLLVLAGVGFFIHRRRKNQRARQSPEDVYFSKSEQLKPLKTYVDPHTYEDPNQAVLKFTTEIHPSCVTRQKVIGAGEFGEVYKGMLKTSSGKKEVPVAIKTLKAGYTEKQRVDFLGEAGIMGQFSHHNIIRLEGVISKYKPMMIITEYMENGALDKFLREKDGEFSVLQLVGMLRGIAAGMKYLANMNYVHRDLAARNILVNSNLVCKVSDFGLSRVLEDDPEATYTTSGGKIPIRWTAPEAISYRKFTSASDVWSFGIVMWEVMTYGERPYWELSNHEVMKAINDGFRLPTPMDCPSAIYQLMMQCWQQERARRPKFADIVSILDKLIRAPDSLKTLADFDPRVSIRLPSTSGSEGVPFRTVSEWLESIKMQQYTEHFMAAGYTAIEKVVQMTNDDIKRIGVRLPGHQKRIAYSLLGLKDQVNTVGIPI

CCc1ccccc1C(=O)Nc1n[nH]c2c(C)c(F)c(C3C(C#N)=C(C)N(C)C(C)=C3C#N)cc12 [BAY-3827]
>10 µM: Cell Proliferation IC50 (DU-145)
inactive: % residual kinase activity [1] 88% | % residual kinase activity [2] 104% | % residual kinase activity [3] 99% | % residual kinase activity [4] 93% | % residual kinase activity [5] 104% | % residual kinase activity [6] 100% | % residual kinase activity [7] 112% | % residual kinase activity [8] 112% | % residual kinase activity [9] 90% | % residual kinase activity [10] 84% | % residual kinase activity [11] 101% | % residual kinase activity [12] 108%
0.28 µM: Cell Proliferation IC50 (LNCaP)
10.8 µM: Cell Proliferation IC50 (L-363)
27.8 µM: Cell Proliferation IC50 (SW480)
